Laboratory results reported in BigSolDB 2.1.

For `COC1=CC(=O)C[C@@H](C)[C@]12Oc1c(Cl)c(OC)cc(OC)c1C2=O`, the solubility (mole fraction) (in DMF, 278.15 K) was 0.00484, the solubility (mole fraction) (in DMF, 283.15 K) was 0.00541 and the solubility (mole fraction) (in DMF, 288.15 K) was 0.0061. For the same molecule, the solubility (mole fraction) (in DMF, 293.15 K) was 0.00703, the solubility (mole fraction) (in DMF, 298.15 K) was 0.00811 and the solubility (mole fraction) (in DMF, 303.15 K) was 0.00933. The solubility (mole fraction) (in DMF, 308.15 K) was 0.0106, the solubility (mole fraction) (in DMF, 313.15 K) was 0.012 and the solubility (mole fraction) (in DMF, 318.15 K) was 0.0136. For the same molecule, the solubility (mole fraction) (in DMF, 323.15 K) was 0.0155, the solubility (mole fraction) (in NMP, 278.15 K) was 0.0324 and the solubility (mole fraction) (in NMP, 283.15 K) was 0.0344. The solubility (mole fraction) (in NMP, 288.15 K) was 0.0369, the solubility (mole fraction) (in NMP, 293.15 K) was 0.0394 and the solubility (mole fraction) (in NMP, 298.15 K) was 0.0425. For the same molecule, the solubility (mole fraction) (in NMP, 303.15 K) was 0.045, the solubility (mole fraction) (in NMP, 308.15 K) was 0.0479 and the solubility (mole fraction) (in NMP, 313.15 K) was 0.0511. It also gave a solubility (mole fraction) (in NMP, 318.15 K) of 0.0541, a solubility (mole fraction) (in NMP, 323.15 K) of 0.0573 and a solubility (mole fraction) (in acetonitrile, 278.15 K) of 0.00331. It also gave a solubility (mole fraction) (in acetonitrile, 283.15 K) of 0.00369, a solubility (mole fraction) (in acetonitrile, 288.15 K) of 0.00418 and a solubility (mole fraction) (in acetonitrile, 293.15 K) of 0.00473. For the same molecule, the solubility (mole fraction) (in acetonitrile, 298.15 K) was 0.00536, the solubility (mole fraction) (in acetonitrile, 303.15 K) was 0.00611 and the solubility (mole fraction) (in acetonitrile, 308.15 K) was 0.00697. For the same molecule, the solubility (mole fraction) (in acetonitrile, 313.15 K) was 0.00795, the solubility (mole fraction) (in acetonitrile, 318.15 K) was 0.00899 and the solubility (mole fraction) (in acetonitrile, 323.15 K) was 0.0102. The solubility (mole fraction) (in ethanol, 278.15 K) was 0.000218, the solubility (mole fraction) (in ethanol, 283.15 K) was 0.000255 and the solubility (mole fraction) (in ethanol, 288.15 K) was 0.000303. The solubility (mole fraction) (in ethanol, 293.15 K) was 0.00037, the solubility (mole fraction) (in ethanol, 298.15 K) was 0.000446 and the solubility (mole fraction) (in ethanol, 303.15 K) was 0.000542. The solubility (mole fraction) (in ethanol, 308.15 K) was 0.00065, the solubility (mole fraction) (in ethanol, 313.15 K) was 0.000779 and the solubility (mole fraction) (in ethanol, 318.15 K) was 0.000928. It also gave a solubility (mole fraction) (in ethanol, 323.15 K) of 0.00112, a solubility (mole fraction) (in methanol, 278.15 K) of 0.000246 and a solubility (mole fraction) (in methanol, 283.15 K) of 0.00028. It also gave a solubility (mole fraction) (in methanol, 288.15 K) of 0.000332, a solubility (mole fraction) (in methanol, 293.15 K) of 0.000413 and a solubility (mole fraction) (in methanol, 298.15 K) of 0.000517. For the same molecule, the solubility (mole fraction) (in methanol, 303.15 K) was 0.000632, the solubility (mole fraction) (in methanol, 308.15 K) was 0.00077 and the solubility (mole fraction) (in methanol, 313.15 K) was 0.000929. It also gave a solubility (mole fraction) (in methanol, 318.15 K) of 0.00111, a solubility (mole fraction) (in methanol, 323.15 K) of 0.00133 and a solubility (mole fraction) (in water, 278.15 K) of 1.93e-07. The solubility (mole fraction) (in water, 283.15 K) was 2.5e-07, the solubility (mole fraction) (in water, 288.15 K) was 3.08e-07 and the solubility (mole fraction) (in water, 293.15 K) was 3.86e-07. It also gave a solubility (mole fraction) (in water, 298.15 K) of 4.7e-07, a solubility (mole fraction) (in water, 303.15 K) of 5.7e-07 and a solubility (mole fraction) (in water, 308.15 K) of 7.18e-07. For the same molecule, the solubility (mole fraction) (in water, 313.15 K) was 8.91e-07, the solubility (mole fraction) (in water, 318.15 K) was 1.1e-06 and the solubility (mole fraction) (in water, 323.15 K) was 1.36e-06.
